Results as given in patent publication US20260125397A1, “MK2 DEGRADERS AND USES THEREOF” (Kymera Therapeutics, Inc., priority 2023, published 2026).

Tests used:
MK2 [1] = molecular target: T1, MK2 (Homo sapiens, UniProt P49137); experiment: MK2 degradation in human THP-1 monocytic cells (MSD, 24 h); assay type: cell-based; set-up: endogenous in cells; conditions: THP-1 cells; for DC50: read-out: MK2 MSD THP-1 degradation 24 h GMean External Abs DC50
Method: The human monocytic cancer cell line THP-1 (ATCC (TIB-202)) was cultured in 96 well plates (Coming 3894) at a density of 200,000 cells per well in 100 microlitres in complete growth medium of RPMI 1640 (Gibco) pus 10% fetal Bovine Serum (Coming) and Penicillin/Streptomycin (SolarBio) at 37 degrees Celsius and 5% CO2. A serial dilution of each compound (usually 3 to 5 fold serial dilutions up to 10 separate concentration points) was added to individual wells from a 10 millimolar stock solution, at a background concentration of 0.1% DMSO and the cells were shaken at 600 rpm for 5 minutes and then were cultured for 24 hours at 37 degrees Celsius and 5% carbon dioxide. Separately, a custom MSD (MesoScaleDiscovery, L15XA-3) plate for detection of human MK2 was prepared by coating the plate with the commercial AbCarn ab247272 reagent in 1× Phosphate Buffered Saline at 40 microlitres per well and incubated at 4 degrees Celsius overnight. The next day, the MSD plate was washed with 150 microlitres of Tween buffered saline, blocked with MSD blocking buffer (3% BlockerA from MSD), and washed again.
(§1) The cell plate was centrifuged at 3,200 g for 5 minutes and the supernatant was discarded and 100 microlitres of RIPA lysis buffer (containing proteinase inhibitors, Boston BioProducts BP-115D) was added and the plate was sealed and shaken on ice for 20 minutes. The plate was centrifuged as before and 70 microlitres of sample lysate was added to the MSD plates and they were shaken at room temperature for I hour at 600 rpm. The MSD plate was washed 3 times as before and then the primary MK2 detection antibody (Santa Cruz sc-100393) was added at a final concentration of 1 microgram per ml at 25 microlitres per well and shaken at room temperature for 1 hour at 600 rpm.
(§2) After 3 more washes, the secondary detection antibody (SULFO-Tag anti rabbit antibody R32AB-5) was added at a final concentration of 1 microgram per ml at 25 microlitres per well and shaken at room temperature for 1 hour at 600 rpm. After 3 more washes, the 1X MSD (diluted from 5X concentrate with water) reading buffer was added at 150 microlitres per well and read on the MSD instrument Meso Sector S 600.
(§3) The inhibition/degradation curves and DC50 values were plotted and calculated using XL Fit (version v5.3.1.3) using equation 201 and a 4 parameter logistic model whereby fit=(A+((B−A)/(1+((x/C)D))) where A is the Bottom and B is the Top and C is the IC50and D is the slope and high C is the signal for the DMSO treated cells and Low C is the signal is the signal for the lysis buffer.

MK2 [2] = molecular target: T1, MK2; experiment: MK2 degradation in human SW1353 cells (MSD, 24 h); assay type: cell-based; set-up: endogenous in cells; host or cells: SW-1353 (ATCC HTB-94); conditions: for Dmax: read-out: MK2 MSD SW 1353 24 h Dmax %; for DC50: read-out: MK2 MSD SW1353 degradation 24 h GMean External Abs DC50
Method: The human chondrocyte cancer cell line SW-1353 (ATCC(HTB-94)) was cultured in 96 well plates (Coming 3894) at a density of 200,000 cells per well in 100 microlitres in complete growth medium of Leibovitz's L-15 Medium (Gibco) pus 10% fetal Bovine Serum (Coming) and Penicillin/Streptomycin (SolarBio) at 37 degrees Celsius. A serial dilution of each compound (usually 3 to 5 fold serial dilutions up to 10 separate concentration points) was added to individual wells from a 10 millimolar stock solution, at a background concentration of 0.10% DMSO and the cells were shaken at 600 rpm for 5 minutes and then were cultured for 24 hours at 37 degrees Celsius. Separately, a custom MSD (MesoScaleDiscovery, L15XA-3) plate for detection of human MK2 was prepared by coating the plate with the commercial AbCam ab247272 reagent in 1× Phosphate Buffered Saline at 40 microlitres per well and incubated at 4 degrees Celsius overnight. The next day, the MSD plate was washed with 150 microlitres of Tween buffered saline, blocked with MSD blocking buffer (3% Blocker A from MSD), and washed again.
as §1, with “for 1” for “for I”
as §2
as §3, with “IC50 and” for “IC50and”

T1 sequence (P49137 whole entry): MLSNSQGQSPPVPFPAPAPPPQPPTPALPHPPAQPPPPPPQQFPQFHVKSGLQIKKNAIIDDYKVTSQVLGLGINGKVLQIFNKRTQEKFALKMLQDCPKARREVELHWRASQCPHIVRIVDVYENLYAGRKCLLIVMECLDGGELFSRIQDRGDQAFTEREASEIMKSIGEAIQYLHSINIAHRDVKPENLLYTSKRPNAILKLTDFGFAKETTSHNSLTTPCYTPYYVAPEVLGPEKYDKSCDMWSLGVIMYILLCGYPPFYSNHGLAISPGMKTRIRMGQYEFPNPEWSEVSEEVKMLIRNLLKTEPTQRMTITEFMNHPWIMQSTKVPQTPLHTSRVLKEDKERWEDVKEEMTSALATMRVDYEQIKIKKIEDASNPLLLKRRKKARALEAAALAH

Structure (SMILES) | Dmax (MK2 [1]) [%] | DC50 (MK2 [1]) [nM] | Dmax (MK2 [2]) [%] | DC50 (MK2 [2]) [nM]
C[C@@H]1CNc2c(sc3ccc4nc(N5CCN(CC6CCC7(CC6)CN(c6ccc(NC8CCC(=O)NC8=O)cc6F)C7)CC5)ccc4c23)C(=O)N1 (stereo partly shown) [I-20] | > 75 | 1 to 10 | > 75 | 1 to 10
C[C@@H]1CNc2c(sc3ccc4nc(N5CC[C@H](N(C)C6CC7(CCN(c8ccc9c(c8)n(C)c(=O)n9C8CCC(=O)NC8=O)CC7)C6)C(F)(F)C5)ccc4c23)C(=O)N1 (stereo partly shown) [I-21] | > 75 | < 1 | > 75 | < 1
Cn1c(=O)n(C2CCC(=O)NC2=O)c2ccc(N3CC(CN4CCN(c5ccc(-c6nccc(-c7cc8c([nH]7)C(C)(C)CNC8=O)n6)cc5)CC4)C3)cc21 (stereo not shown) [I-22] | > 75 | < 1 | > 75 | < 1
C[C@@H]1CNc2c(sc3ccc4nc(N5CCN(CC6CCC7(CC6)CN(c6ccc8c(N9CCC(=O)NC9=O)cncc8c6)C7)CC5)ccc4c23)C(=O)N1 [I-23] | > 75 | < 1 | > 75 | < 1
Cn1c(=O)n(C2CCC(=O)NC2=O)c2cccc(OCCN3CCN(c4ccc(-c5nccc(-c6cc7c([nH]6)C6(CC6)CNC7=O)n5)c(F)c4)CC3)c21 (stereo not shown) [I-24] | > 75 | < 1 | > 75 | 1 to 10
C[C@@H]1CNc2c(sc3ccc4nc(N5CCN(C6CC7(CCN(c8ccc(NC9CCC(=O)NC9=O)cc8F)CC7)C6)CC5)ccc4c23)C(=O)N1 (stereo partly shown) [I-25] | > 75 | < 1 | > 75 | 1 to 10
C[C@@H]1CNc2c(sc3ccc4nc(N5CCC(N(CC(F)(F)F)C6CC7(CCN(c8ccc9c(c8)n(C)c(=O)n9C8CCC(=O)NC8=O)CC7)C6)CC5)ccc4c23)C(=O)N1 (stereo partly shown) [I-27] | > 75 | < 1 | > 75 | 1 to 10
Cn1c(=O)n(C2CCC(=O)NC2=O)c2ccc(N3CC(CN4CCN(c5ccc(-c6cc(-c7cc8c(o7)C7(CC7)CNC8=O)ccn6)cc5)CC4)C3)cc21 (stereo not shown) [I-28] | > 75 | < 1 | > 75 | < 1
Cn1c(=O)n(C2CCC(=O)NC2=O)c2ccc(N3CC(CN4CCN(c5ccc(-c6cc(-c7cc8c([nH]7)C7(CC7)CNC8=O)ncn6)cc5)CC4)C3)cc21 (stereo not shown) [I-30] | 50 to 75 | < 1 | 50 to 75 | < 1
O=C1CCN(c2cncc3c(CCN4CCN(c5ccc(-c6nccc(-c7cc8c([nH]7)C7(CCC7)CNC8=O)n6)c(F)c5)CC4)cccc23)C(=O)N1 [I-31] | > 75 | < 1 | > 75 | 1 to 10
C[C@@H]1CNc2c(sc3ccc4nc(N5CCN(CCC6CC7(CCN(C(=O)c8ccc(Cl)c(N9CCC(=O)NC9=O)c8)CC7)C6)CC5)ccc4c23)C(=O)N1 [I-35] | > 75 | < 1 | > 75 | < 1
C[C@@H]1CNc2c(sc3ccc4nc(N5CCC(OC6CCC7(CC6)CN(c6ccc8c(c6)n(C)c(=O)n8C6CCC(=O)NC6=O)C7)CC5)ccc4c23)C(=O)N1 (stereo partly shown) [I-36] | > 75 | < 1 | > 75 | < 1
Cn1c(=O)n(C2CCC(=O)NC2=O)c2ccc(N3CC(CN4CCN(c5ccc(-c6nccc(-c7cc8c([nH]7)C7(CC7)CNC8=O)n6)cc5C#N)CC4)C3)cc21 (stereo not shown) [I-37] | > 75 | < 1 | > 75 | < 1
C[C@@H]1CNc2c(sc3ccc4nc(N5CCC(COC6CCN(c7ccc8c(c7)n(C)c(=O)n8C7CCC(=O)NC7=O)CC6)CC5)ccc4c23)C(=O)N1 (stereo partly shown) [I-38] | 50 to 75 | < 1 | 50 to 75 | < 1
Cn1c(=O)n(C2CCC(=O)NC2=O)c2ccc(C#CCN3CCN(c4ccc(-c5nccc(-c6cc7c([nH]6)C6(CC6)CNC7=O)n5)cc4)CC3)cc21 (stereo not shown) [I-41] | > 75 | < 1 | 50 to 75 | < 1
COc1ccc2c(c1CCN1CCN(c3ccc(-c4nccc(-c5cc6c([nH]5)C5(CC5)CNC6=O)n4)cc3)CC1)n(C)c(=O)n2C1CCC(=O)NC1=O (stereo not shown) [I-42] | > 75 | < 1 | > 75 | < 1
C[C@@H]1CNc2c(sc3ccc4nc(N5CCC(CN6CCC(N7CC(c8ccc9c(c8)n(C)c(=O)n9C8CCC(=O)NC8=O)C7)CC6)CC5)ccc4c23)C(=O)N1 (stereo partly shown) [I-43] | > 75 | < 1 | > 75 | < 1

Results, then the compound that gave them:

Dmax (MK2 [1]) [%] | DC50 (MK2 [1]) [nM] | Dmax (MK2 [2]) [%] | DC50 (MK2 [2]) [nM] | Structure (SMILES)
> 75 | < 1 | > 75 | 1 to 10 | C[C@@H]1CNc2c(sc3ccc4nc(N5CCN(CCC6CCC7(CC6)CCN(C(=O)c6ccc(Cl)c(N8CCC(=O)NC8=O)c6)CC7)CC5)ccc4c23)C(=O)N1 [I-26]
> 50 | > 100 | > 50 | > 100 | Cn1c(=O)n(C2CCC(=O)NC2=O)c2ccc(N3CC(CN4CCN(c5ccc(-c6cc(-c7cc8c(o7)C7(CC7)CNC8=O)ncn6)cc5)CC4)C3)cc21 (stereo not shown) [I-29]
> 50 | > 100 | > 50 | > 100 | Cn1c(=O)n(C2CCC(=O)NC2=O)c2cccc(-n3ccc(N4CCN(c5ccc(-c6nccc(-c7cc8c([nH]7)C7(CCCC7)CNC8=O)n6)cc5)CC4)c3)c21 (stereo not shown) [I-32]
50 to 75 | 1 to 10 | 50 to 75 | 1 to 10 | Cn1c(=O)n(C2CCC(=O)NC2=O)c2cccc(N3CCC(N4CCN(c5ccc(-c6nccc(-c7cc8c([nH]7)C7(CCCC7)CNC8=O)n6)cc5)CC4)C3)c21 (stereo not shown) [I-33]
> 50 | > 100 | > 50 | > 100 | Cn1c(=O)n(C2CCC(=O)NC2=O)c2ccc(N3CC(CN4CCC(N5CCN(c6nccc(-c7cc8c([nH]7)C7(CC7)CNC8=O)n6)CC5)CC4)C3)cc21 (stereo not shown) [I-34]
> 50 | < 1 | > 50 | < 1 | C[C@@H]1CNc2c(sc3ccc4nc(N5CCN(C[C@H]6C[C@]7(CCN(c8ccc9c(c8)n(C)c(=O)n9C8CCC(=O)NC8=O)C7)C6)CC5)ccc4c23)C(=O)N1 (stereo partly shown) [I-39]
> 75 | < 1 | > 75 | < 1 | C[C@@H]1CNc2c(sc3ccc4nc(N5CCN(C[C@H]6C[C@@]7(CCN(c8ccc9c(c8)n(C)c(=O)n9C8CCC(=O)NC8=O)C7)C6)CC5)ccc4c23)C(=O)N1 (stereo partly shown) [I-40]
> 50 | > 100 | > 50 | > 100 | Cn1c(=O)n(C2CCC(=O)NC2=O)c2ccc(N3CC(CN4CCC(n5cc(-c6nccc(-c7cc8c([nH]7)C7(CC7)CNC8=O)n6)cn5)CC4)C3)cc21 (stereo not shown) [I-44]
